Data on two compounds can be found in patent US5043335A, “Indolocarbazoles and the use thereof” (Godecke Aktiengesellschaft, priority 1989, dated 1991).

One assay addresses protein kinase C. Description: Inhibition of protein kinase C activated with phosphatidylserine and diacylglycerol (in vitro enzyme assay). The class given is biochemical. As to conditions: for IC50: activated with phosphatidylserine and diacylglycerol, read-out: Inhibiton (IC50) C-Kinase.
The target in assay [1] is T1, cAMP-dependent protein kinase (catalytic subunit) (Homo sapiens, UniProt P17612).
T1 construct: purchased
Put plainly: cAMP-dependent protein kinase (A kinase) test, 32P-phosphate incorporation into histone. The class given is biochemical. Here is the method: (§1) The determination the inhibition of the cAMP- and of the cGMP-dependent protein kinase took place according to the test description below.
cAMP-dependent protein kinase: The measurement of the activity takes place with the commercially available catalytic subunits of the enzyme. The incorporation of phosphorus 32-labeled phosphate into histone is thereby measured. A reaction batch of 200 μL contains the following components: 50 mM PIPES-NaOH (pH 7.5), 10 mM magnesium chloride, 1 mM DTT, 40 μM ATP, as well as 50 μg histone H-2B. The test is carried out as in the case of G kinase. The reaction is thereby started by the addition of 6 units of the catalytic subunit of the cAMP-dependent protein kinase.

In assay [2] the target is T2, cGMP-dependent protein kinase (Bos taurus, UniProt P00516).
T2 construct: The enzyme was obtained from bovine lung tissue and purified; from tissue; host or cells: bovine lung
T2 sequence (P00516 1-671): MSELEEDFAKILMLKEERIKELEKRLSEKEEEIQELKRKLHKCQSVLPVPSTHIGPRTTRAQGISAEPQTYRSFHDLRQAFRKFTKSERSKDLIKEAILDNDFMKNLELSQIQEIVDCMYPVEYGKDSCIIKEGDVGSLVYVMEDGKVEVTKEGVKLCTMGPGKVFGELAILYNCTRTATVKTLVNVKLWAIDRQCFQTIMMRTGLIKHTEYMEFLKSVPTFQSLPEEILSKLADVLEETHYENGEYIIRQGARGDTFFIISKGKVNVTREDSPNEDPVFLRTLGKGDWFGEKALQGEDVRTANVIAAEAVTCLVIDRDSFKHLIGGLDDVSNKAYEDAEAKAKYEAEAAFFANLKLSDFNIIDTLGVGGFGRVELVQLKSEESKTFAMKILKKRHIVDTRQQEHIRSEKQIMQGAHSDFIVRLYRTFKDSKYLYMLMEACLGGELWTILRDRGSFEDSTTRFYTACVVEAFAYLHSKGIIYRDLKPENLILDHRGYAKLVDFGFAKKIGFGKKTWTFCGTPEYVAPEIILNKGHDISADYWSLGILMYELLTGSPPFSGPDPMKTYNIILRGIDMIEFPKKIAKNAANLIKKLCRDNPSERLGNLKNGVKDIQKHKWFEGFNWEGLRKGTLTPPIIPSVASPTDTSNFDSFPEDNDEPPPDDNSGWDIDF
Description: cGMP-dependent protein kinase (G kinase) test, 32P-phosphate incorporation into histone. The class given is biochemical, bovine. As for the experimental part:
as §1
cGMP-dependent protein kinase: The enzyme was obtained from bovine lung tissue and purified and its activity determined via the incorporation of phosphorus 32-labeled phosphate into histone. The following components are contained in a test batch of 200 μL: 20 mM Tris-HCl (pH 7.4), 5 mM magnesium chloride, 1 mM DTT, 10 μM ATP, […], 40 μg BSA, 2% glycerol, as well as 10 μg histone II-A and possibly the substance to be investigated. […] After incubating for 5 minutes at 30° C., the reaction is stopped by the addition of 10% trichloroacetic acid and the samples then filtered off over a nitrocellulose filter. The phosphate incorporation is determined by Cerenkov counting in a scintillation counter and the percentage inhibition calculated therefrom.

As to `O=C1NC(=O)c2c1c1c3ccccc3n3c1c1c2c2ccccc2n1C1CCC3O1` [I, 9,10,11,12-tetrahydro-9,l2-epoxy-1H-diindolo[1,2,3-fg: 3',2',1',kl]pyrrolo[3,4-i][1,6]benzodiazocine-1,3(2H)-dione], the IC50 on protein kinase C was 28 nM; in assay [1] it was 5500 nM; in assay [2] it was 520 nM. In addition, in assay [1] (A-kinase versus C-kinase), the “Ratio IC50 kinase / IC50 C-Kinase, A/C” value is 196. The “Ratio IC50 kinase / IC50 C-Kinase, G/C” value in assay [2] (G-kinase versus C-kinase) was 19.
Consider `O=C1c2c(c3c4ccccc4n4c3c3c2c2ccccc2n3C2CCC4O2)C(=O)N1Cc1ccccc1` [III], for which the IC50 on protein kinase C is > 10000 nM. In addition, the “inhibition of protein kinase C at a single concentration” value in the assay on protein kinase C (concentration of 10^-5 M, same conditions of the in vitro enzyme assay) is “does not display a significant inhibition”.

The term IC50 denotes the concentration that inhibits the measured activity by half.
